Publication PMC6198068, “Discovery of a Novel Nav1.7 Inhibitor From Cyriopagopus albostriatus Venom With Potent Analgesic Efficacy” (Frontiers in Pharmacology, 2018)
Where a SMILES comes first, the peptide text is derived from it. Bridges are numbered along the chain shown (N, C = ends).

Legend:
Nav1.4/N655D/Q657E = molecular target: T1, Nav1.4/N655D/Q657E (Rattus norvegicus, UniProt P15390, N655D/Q657E); test: Whole-cell patch-clamp, Nav1.4/N655D/Q657E in HEK293T cells; assay type: cell-based
T1 construct: expressed in transfected cells; host or cells: HEK293T
Description: (§1) The cDNA genes encoding rat Nav1.4 and human Nav1.7 were subcloned into vectors pRGB4 and pcDNA3.1-mod, respectively. Mutations of rNav1.4 (N655D, Q657E, and N655D/Q657E) and hNav1.7 (D816N, E818Q, and D816N/E818Q) were constructed using the Gene Tailor Site-Directed Mutagenesis system (Invitrogen, Carlsbad, CA, United States), according to the manufacturer’s instructions. Nav1.2–Nav1.7 and mutant plasmids together with eGFP were transiently transfected into HEK293T cells while Nav1.8 together with eGFP was transiently transfected into ND7/23 cells by Lipofectamine 2000 (Invitrogen, Carlsbad, CA, United States). Additionally, plasmids β1- and β2-eGFP encoding the human β1 and β2 subunits, respectively, were co-transfected with those encoding WT Nav1.7 and Nav1.7 mutations in HEK293T cells. […] Cells with green fluorescent protein fluorescence were selected for whole-cell patch-clamp recordings 24 h after transfection.
(§2) Whole-cell patch-clamp recordings were performed at room temperature (20–25°C) using an EPC 10 USB Patch Clamp Amplifier (HEKA, Elektronik, Lambrecht, Germany). […] Data was analyzed by software Igo Pro 6.10A (WaveMetrics, Lake Oswego, OR, United States), SigmaPlot 10.0 (Sigma-Aldrich, St. Louis, MO, United States), OriginPro 8 (OriginLab Corp., Northampton, MA, United States), and GraphPad Prism 5 (GraphPad Software, San Diego, CA, United States). […]

Nav1.7/D816N/E818Q = test: Whole-cell patch-clamp, Nav1.7/D816N/E818Q in HEK293T cells; assay type: cell-based, human; settings: 1 μM, n = 5 cells
Description: as §1, §2

Nav1.7/D816N [1] = molecular target: T2, Nav1.7/D816N (Homo sapiens, UniProt Q15858, D827N); test: Whole-cell patch-clamp, Nav1.7/D816N in HEK293T cells; assay type: cell-based
T2 construct: expressed in transfected cells; host or cells: HEK293T
Description: as §1, §2

Nav1.7/D816N [2] = molecular target: T2, Nav1.7/D816N; test: Fast inactivation kinetics in Nav1.7/D816N channel; assay type: cell-based; settings: 0.2 µM; between -10 mV and +10 mV; n = 7
Description: as §1, with “States).” for “States). Additionally, plasmids β1- and β2-eGFP encoding the human β1 and β2 subunits, respectively, were co-transfected with those encoding WT Nav1.7 and Nav1.7 mutations in HEK293T cells.”
as §2
Fast inactivation time constants were calculated by fitting current decay traces with a single exponential function using the I–V protocol described above. […]

Nav1.7 = molecular target: T3, Nav1.7 (Homo sapiens, UniProt Q15858); test: Rate of toxin dissociation from Nav1.7 at depolarizing pulses; assay type: cell-based; settings: 1 μM, mean ± SEM, n = 6–11 cells
T3 construct: expressed in transfected cells; host or cells: HEK293T
Description: as §1, with “cells. Human Nav1.9 was transfected into ND7/23 cells according to a previous report ([Zhou et al., 2017]).” for “cells.”
as §2
Fast inactivation time constants were calculated by fitting current decay traces with a single exponential function using the I–V protocol described above. Recovery from fast-inactivation (repriming) was assessed by using a two-pulse protocol consisting of a depolarizing pulse to −10 mV for 50 ms to inactivate channels, followed by a step to −100 mV of variable duration (1 to 1024 ms) to promote recovery, and 50 ms test pulse to −10 mV to assess availability of channels. […]

Nav1.5 = molecular target: T4, Nav1.5 (Homo sapiens, UniProt Q14524); test: in vitro
T4 construct: expressed in transfected cells; host or cells: HEK293T
Description: as §1, with “cells. Human Nav1.9 was transfected into ND7/23 cells according to a previous report ([Zhou et al., 2017]).” for “cells.”
as §2
Concentration-response curves were fitted using the following Hill logistic equation: y = fmax − (fmax − fmin)/(1 + (x/IC50)^n), where fmax and fmin, respectively, represent the channel’s maximum and minimum responses to toxins, fmin was set to 0, x represents toxin concentration and n is an empirical Hill coefficient. […] Peak inward currents from steady-state inactivation were normalized by the maximum current amplitude and fit with a Boltzmann equation I = Imin + 1/(1 + exp[Vm − V1/2/k]) where I is the current amplitude measured during the test depolarization, V1/2 is the midpoint of inaction, and k is the slope factor. […]

Nav1.2 = molecular target: T5, Nav1.2 (Homo sapiens, UniProt Q99250); test: Whole-cell patch-clamp, Nav1.2 in HEK293T cells; assay type: cell-based; settings: mean ± SEM
T5 construct: expressed in transfected cells; host or cells: HEK293T
Description: as §1, §2

T4 sequence (Q14524 whole entry): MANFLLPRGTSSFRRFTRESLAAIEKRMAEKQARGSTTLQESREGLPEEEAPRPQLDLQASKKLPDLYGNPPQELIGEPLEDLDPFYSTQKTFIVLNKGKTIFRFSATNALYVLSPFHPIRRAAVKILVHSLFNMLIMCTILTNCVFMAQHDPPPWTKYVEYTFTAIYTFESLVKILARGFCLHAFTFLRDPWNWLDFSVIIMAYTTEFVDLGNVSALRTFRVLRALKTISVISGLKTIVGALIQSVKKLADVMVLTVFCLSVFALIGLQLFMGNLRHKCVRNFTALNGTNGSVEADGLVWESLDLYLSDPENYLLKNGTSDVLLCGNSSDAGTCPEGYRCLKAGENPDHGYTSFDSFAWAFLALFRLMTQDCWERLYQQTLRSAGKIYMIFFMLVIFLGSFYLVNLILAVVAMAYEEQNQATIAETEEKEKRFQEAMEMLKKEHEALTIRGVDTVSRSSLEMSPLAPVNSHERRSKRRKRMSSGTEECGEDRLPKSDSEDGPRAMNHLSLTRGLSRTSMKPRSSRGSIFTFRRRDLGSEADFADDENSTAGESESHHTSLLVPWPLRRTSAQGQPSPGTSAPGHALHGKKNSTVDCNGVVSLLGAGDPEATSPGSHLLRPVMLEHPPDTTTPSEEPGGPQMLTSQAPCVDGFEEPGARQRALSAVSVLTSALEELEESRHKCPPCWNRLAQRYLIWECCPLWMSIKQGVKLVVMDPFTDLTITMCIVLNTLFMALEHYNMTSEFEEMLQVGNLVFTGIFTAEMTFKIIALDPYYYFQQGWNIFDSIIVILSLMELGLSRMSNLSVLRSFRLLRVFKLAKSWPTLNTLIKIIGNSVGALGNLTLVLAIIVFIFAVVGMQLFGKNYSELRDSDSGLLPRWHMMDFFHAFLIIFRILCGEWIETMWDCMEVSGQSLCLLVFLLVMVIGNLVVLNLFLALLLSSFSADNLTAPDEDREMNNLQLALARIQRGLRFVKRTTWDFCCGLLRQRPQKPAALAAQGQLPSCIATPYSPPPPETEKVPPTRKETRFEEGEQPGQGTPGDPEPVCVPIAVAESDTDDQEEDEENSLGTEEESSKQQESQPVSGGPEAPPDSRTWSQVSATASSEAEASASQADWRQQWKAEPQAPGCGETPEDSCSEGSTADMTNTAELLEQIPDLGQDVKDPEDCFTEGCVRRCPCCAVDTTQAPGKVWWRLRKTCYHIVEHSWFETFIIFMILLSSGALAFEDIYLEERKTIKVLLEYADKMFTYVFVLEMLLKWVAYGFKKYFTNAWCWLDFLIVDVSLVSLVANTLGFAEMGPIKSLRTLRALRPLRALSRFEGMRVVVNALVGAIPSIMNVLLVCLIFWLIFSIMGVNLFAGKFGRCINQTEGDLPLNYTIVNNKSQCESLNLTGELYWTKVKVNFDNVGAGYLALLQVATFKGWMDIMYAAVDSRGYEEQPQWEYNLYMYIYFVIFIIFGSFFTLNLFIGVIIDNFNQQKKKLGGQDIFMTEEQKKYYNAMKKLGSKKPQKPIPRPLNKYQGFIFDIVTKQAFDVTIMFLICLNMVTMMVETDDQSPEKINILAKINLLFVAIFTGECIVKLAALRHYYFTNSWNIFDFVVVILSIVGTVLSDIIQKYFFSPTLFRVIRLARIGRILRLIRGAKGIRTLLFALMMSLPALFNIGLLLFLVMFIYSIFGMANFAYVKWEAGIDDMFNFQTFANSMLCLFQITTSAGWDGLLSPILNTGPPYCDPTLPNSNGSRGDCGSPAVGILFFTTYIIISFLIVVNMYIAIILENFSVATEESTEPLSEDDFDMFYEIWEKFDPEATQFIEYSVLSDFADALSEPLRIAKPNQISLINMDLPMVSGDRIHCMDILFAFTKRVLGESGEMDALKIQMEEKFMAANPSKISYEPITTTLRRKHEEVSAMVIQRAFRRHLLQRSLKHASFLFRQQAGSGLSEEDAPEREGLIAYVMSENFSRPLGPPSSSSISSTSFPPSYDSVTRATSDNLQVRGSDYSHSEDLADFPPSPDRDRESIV
T2 sequence (O60939 30-215): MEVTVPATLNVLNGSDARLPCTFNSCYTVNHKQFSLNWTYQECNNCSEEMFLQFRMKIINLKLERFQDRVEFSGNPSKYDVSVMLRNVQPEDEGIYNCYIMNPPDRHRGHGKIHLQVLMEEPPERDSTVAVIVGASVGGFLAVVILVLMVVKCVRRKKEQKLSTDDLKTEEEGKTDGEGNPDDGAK
T2 sequence (Q07699 19-218, further chain): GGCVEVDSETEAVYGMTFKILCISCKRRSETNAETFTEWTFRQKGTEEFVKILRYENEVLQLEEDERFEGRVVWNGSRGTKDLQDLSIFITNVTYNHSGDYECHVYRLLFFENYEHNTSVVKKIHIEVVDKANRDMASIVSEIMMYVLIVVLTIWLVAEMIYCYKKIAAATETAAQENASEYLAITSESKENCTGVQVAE
T2 sequence (Q15858 other isoform, or with tags, fused parts or gaps D816N): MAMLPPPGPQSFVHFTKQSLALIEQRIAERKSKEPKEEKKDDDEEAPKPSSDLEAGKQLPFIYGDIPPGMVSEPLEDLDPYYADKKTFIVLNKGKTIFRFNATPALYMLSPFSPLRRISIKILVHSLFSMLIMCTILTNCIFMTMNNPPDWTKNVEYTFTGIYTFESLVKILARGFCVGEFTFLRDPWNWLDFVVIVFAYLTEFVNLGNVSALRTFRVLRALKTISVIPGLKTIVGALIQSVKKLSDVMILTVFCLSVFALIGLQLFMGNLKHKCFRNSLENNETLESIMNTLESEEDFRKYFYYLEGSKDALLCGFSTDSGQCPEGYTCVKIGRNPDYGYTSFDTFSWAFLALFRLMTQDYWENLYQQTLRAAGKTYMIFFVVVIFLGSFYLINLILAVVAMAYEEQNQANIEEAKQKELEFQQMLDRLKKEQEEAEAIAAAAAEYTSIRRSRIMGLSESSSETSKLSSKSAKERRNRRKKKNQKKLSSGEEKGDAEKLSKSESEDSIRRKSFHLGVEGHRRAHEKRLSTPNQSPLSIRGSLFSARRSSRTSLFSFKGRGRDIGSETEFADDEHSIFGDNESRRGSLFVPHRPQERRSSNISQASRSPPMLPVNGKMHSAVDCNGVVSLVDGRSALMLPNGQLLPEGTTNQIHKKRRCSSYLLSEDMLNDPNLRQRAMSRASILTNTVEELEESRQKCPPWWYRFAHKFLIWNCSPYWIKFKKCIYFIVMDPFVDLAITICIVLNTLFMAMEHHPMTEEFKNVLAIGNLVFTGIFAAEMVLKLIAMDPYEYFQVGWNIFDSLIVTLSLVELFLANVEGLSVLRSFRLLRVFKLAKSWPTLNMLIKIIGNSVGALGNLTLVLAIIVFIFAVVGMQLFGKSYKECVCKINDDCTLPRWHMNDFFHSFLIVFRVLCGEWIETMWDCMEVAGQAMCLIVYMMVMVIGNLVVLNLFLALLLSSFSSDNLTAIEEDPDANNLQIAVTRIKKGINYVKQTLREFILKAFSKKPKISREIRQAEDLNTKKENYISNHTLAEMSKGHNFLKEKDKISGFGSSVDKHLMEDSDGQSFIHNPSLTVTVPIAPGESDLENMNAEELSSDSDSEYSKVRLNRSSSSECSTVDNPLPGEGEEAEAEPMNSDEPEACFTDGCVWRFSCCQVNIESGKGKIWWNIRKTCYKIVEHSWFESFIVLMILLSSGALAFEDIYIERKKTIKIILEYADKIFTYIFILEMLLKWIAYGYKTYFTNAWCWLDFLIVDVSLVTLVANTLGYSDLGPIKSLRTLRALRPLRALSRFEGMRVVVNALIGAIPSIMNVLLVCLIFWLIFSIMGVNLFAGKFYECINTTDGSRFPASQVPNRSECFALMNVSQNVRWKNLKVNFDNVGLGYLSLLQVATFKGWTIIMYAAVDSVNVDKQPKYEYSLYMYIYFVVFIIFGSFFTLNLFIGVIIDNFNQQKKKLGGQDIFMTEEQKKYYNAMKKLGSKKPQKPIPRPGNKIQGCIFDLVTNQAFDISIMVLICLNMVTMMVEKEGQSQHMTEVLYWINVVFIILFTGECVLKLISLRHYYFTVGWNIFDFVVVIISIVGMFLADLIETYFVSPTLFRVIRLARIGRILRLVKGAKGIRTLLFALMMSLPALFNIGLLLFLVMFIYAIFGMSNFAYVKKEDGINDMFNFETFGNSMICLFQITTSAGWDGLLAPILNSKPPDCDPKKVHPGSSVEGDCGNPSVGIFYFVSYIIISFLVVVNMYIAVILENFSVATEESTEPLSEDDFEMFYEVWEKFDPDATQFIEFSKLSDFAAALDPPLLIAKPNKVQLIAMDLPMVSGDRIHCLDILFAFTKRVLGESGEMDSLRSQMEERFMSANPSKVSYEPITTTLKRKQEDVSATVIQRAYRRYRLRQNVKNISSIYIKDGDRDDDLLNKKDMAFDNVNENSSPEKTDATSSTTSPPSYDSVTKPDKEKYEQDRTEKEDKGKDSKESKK
T3 sequence (O60939 30-215): as the sequence (O60939 30-215) above
T3 sequence (Q15858 other isoform, or with tags, fused parts or gaps): as the sequence (Q15858 other isoform, or with tags, fused parts or gaps D816N) above, with N816D counted along it
T3 sequence (Q07699 19-218, further chain): as the sequence (Q07699 19-218, further chain) above

For `CC(C)C[C@H](NC(=O)[C@H](CC(=O)O)NC(=O)[C@H](Cc1ccc(O)cc1)NC(=O)[C@H](CCCCN)NC(=O)[C@@H]1CSSC[C@@H]2NC(=O)[C@H](CCCCN)NC(=O)[C@H](CC(=O)O)NC(=O)[C@H](CC(N)=O)NC(=O)[C@H](CO)NC(=O)[C@@H]3CCCN3C(=O)[C@H](CC(N)=O)NC(=O)[C@@H]3CSSC[C@H](NC(=O)[C@H](C(C)C)NC(=O)[C@H](CC(C)C)NC(=O)[C@H](CO)NC(=O)[C@H](CO)NC(=O)[C@H](CO)NC(=O)[C@H](CCCCN)NC(=O)[C@H](CSSC[C@H](NC(=O)[C@H](C)N)C(=O)N[C@@H](CC(C)C)C(=O)NCC(=O)N[C@@H](Cc4ccccc4)C(=O)NCC(=O)N[C@@H](CCC(=O)O)C(=O)N[C@@H](CCCCN)C(=O)N3)NC2=O)C(=O)N[C@@H](CO)C(=O)N[C@@H](CCC(N)=O)C(=O)N[C@@H](CCCCN)C(=O)N[C@@H](Cc2c[nH]cn2)C(=O)N[C@@H](CCCCN)C(=O)N[C@@H](Cc2c[nH]c3ccccc23)C(=O)N1)C(=O)O` [Ca2a] (H-ACLGFGEKCNPSNDKCCKSSSLVCSQKHKWCKYDL-OH; disulfide 2-17, 9-24, 16-31 (inferred); N-terminus and C-terminus assumed), the “inhibition of peak current of Nav1.4/N655D/Q657E” value (Nav1.4/N655D/Q657E; 1 μM, n = 4–5 cells) was “significantly inhibited”, the IC50 (Nav1.4/N655D/Q657E; mean ± SEM, n = 4–5 cells per data point) was 238 ± 26.1 nM and the “activity on Nav1.7/D816N/E818Q” value (Nav1.7/D816N/E818Q) was “no activity”. For the same molecule, the “inhibition of Nav1.7/D816N current amplitude” value (Nav1.7/D816N [1]; 1 μM) was “significantly inhibited”, the IC50 (Nav1.7/D816N [1]; mean ± SEM, n = 5 cells per data point) was 172 ± 11.4 nM and the “inactivation time constant of Nav1.7/D816N” value (Nav1.7/D816N [2]) was “did not alter inactivation time constant”. For the same molecule, the “dissociation time constant from Nav1.7” value (Nav1.7; at 60 mV) was 547.2 ± 24.3 ms, the “dissociation time constant from Nav1.7” value (Nav1.7; at 80 mV) was 347.9 ± 29.2 ms and the “dissociation time constant from Nav1.7” value (Nav1.7; at 100 mV) was 169.8 ± 25.6 ms. The selectivity ratio (Nav1.5; cardiac isoform Nav1.5 vs Nav1.7, read-out: selectivity for Nav1.7 against Nav1.5) was > 100, the IC50 (Nav1.5; cardiac muscle isoform, whole-cell patch-clamp, HEK293T) was > 10000 nM and the “inhibitory effect on Nav1.5 currents” value (Nav1.5; up to 10 μM, HEK293T) was “no inhibitory effects”. The “decrease of Nav1.2 current amplitude” value (Nav1.2; 1 μM, 50 ms to −10 mV from −100 mV) was 82.6 ± 2.7% and the IC50 (Nav1.2; whole-cell patch-clamp, n = 4–7 cells per data point) was 216 ± 9.1 nM.
